Patent publication US20090312238A1, “Protection Against Oxidative Damage in Cells” (Florida Atlantic University, priority 2006, published 2009)

What was measured:
[1] = biological target: T1, hMsrB3 (Homo sapiens, UniProt Q8IXL7); test: Colorimetric assay for Msr activity based on the reduction of DABS-met(o); assay type: biochemical; details: for activity of chelating agent in place of EDTA with Zn-MT: EGTA 5 or 20 mM, deferoxamine 5 mM, zincon 500 μM
T1 construct: made in house; host or cells: BL21 E. coli
T1 sequence (Q8IXL7 33-192): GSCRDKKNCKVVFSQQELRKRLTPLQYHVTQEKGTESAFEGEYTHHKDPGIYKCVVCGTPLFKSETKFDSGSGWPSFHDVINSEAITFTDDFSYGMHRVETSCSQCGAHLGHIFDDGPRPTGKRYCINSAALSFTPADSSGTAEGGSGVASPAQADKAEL
Experimental: (§1) The reaction mixture (200 μl) to measure Msr activity contained 100 mM Tris-Cl pH 7.4, 100 nmoles of the indicated DABS-met(o) epimer (see Materials), either 15 mM DTT or the Trx regenerating system (Trx, 10 μg, Trx reductase, 2.4 μg, NADPH, 500 μM) and Msr enzyme as indicated. When the liver fractions (Zn-MT, T or T(o)) were tested, DTT was omitted and the Trx reducing system and 5 mM EDTA were added as indicated. Incubations were for 60 minutes at 37° C. unless noted otherwise. […] The quantitation of DABS-met formed employed a slight modification of an extraction procedure previously described by Etienne et al (Etienne, F., Resnick, L., Sagher, D., Brot, N. & Weissbach, H. (2003) Biochem Biophys Res Commun 312, 1005-1010) for the reduction of sulindac to sulindac sulfide by MsrA. The reactions were stopped by the addition of 200 μl of 1 M sodium acetate pH 6.0, followed by the addition of 100 μL of acetonitrile and 1 ml of benzene. After thorough shaking and centrifugation, the optical density of the benzene layer was read at 436 nm. […] Unless indicated otherwise, the results are presented as nmoles DABS-met formed in 60 minutes.

[2] = biological target: T2, bMsrA (Bos taurus, UniProt P54149); test: as above; assay type: biochemical, bovine
T2 construct: made in house; host or cells: E. coli
T2 sequence (P54149 21-233): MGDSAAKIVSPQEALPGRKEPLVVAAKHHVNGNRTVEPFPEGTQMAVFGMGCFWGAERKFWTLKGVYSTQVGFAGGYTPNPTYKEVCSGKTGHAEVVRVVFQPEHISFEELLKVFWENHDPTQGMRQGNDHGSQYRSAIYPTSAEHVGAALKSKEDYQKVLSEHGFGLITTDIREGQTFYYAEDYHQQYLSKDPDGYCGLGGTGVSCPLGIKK
Experimental: as §1

[3] = biological target: T3, T(o) (Bos taurus, UniProt P68301); test: Reduction of T(o) by Trx, oxidation of NADPH followed at 340 nm; assay type: biochemical, bovine; details: FIG. 4; 100 μM NADPH, 26 μg Trx, 6 μg TrxB, 28 μg partially-oxidized T
T3 construct: Fresh bovine liver was homogenized in 3 volumes of 50 mM Tris, pH 7.4; from tissue; host or cells: bovine liver
Experimental: To study the reduction of T(o) by Trx, the reaction mixtures contained, in a total volume of 1 ml, 100 μM NADPH, 26 μg Trx, 6 μg TrxB and 28 μg of partially-oxidized T (see above). The oxidation of NADPH was followed at 340 nm at room temperature.

[4] = biological target: T4, eMsrA (Escherichia coli, UniProt P0A744); test: Colorimetric assay for Msr activity based on the reduction of DABS-met(o); assay type: biochemical, E. coli; details: for nmoles DABS-met: eMsrA 1.6 μg
T4 construct: made in house; host or cells: E. coli
Experimental: as §1

[5] = biological target: T5, eMsrB (Escherichia coli, UniProt P0A746); test: as above; assay type: biochemical, E. coli
T5 construct: made in house; host or cells: E. coli
T5 sequence (P0A746 whole entry, looked up): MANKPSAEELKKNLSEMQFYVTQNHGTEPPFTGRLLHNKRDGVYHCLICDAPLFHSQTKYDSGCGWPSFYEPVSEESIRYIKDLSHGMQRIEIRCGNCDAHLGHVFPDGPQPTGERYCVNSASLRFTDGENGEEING
Experimental: as §1

[6] = biological target: T6, hMsrB2 (Homo sapiens, UniProt Q9Y3D2); test: as above; assay type: biochemical; details: for nmoles DABS-met: hMsrB2 2.7 μg
T6 construct: made in house; host or cells: E. coli
Experimental: as §1

[7] = biological target: T7, MsrA (Rattus norvegicus, UniProt Q923M1); test: MsrA activity in cardiomyocytes, reduction of sulindac to sulindac sulfide; assay type: cell-based; details: for amount of product (sulindac sulfide): primary neonatal rat cardiomyocytes, 400 μM sulindac
T7 construct: endogenous in cells; host or cells: primary neonatal rat cardiomyocytes
T7 sequence (Q923M1 21-233): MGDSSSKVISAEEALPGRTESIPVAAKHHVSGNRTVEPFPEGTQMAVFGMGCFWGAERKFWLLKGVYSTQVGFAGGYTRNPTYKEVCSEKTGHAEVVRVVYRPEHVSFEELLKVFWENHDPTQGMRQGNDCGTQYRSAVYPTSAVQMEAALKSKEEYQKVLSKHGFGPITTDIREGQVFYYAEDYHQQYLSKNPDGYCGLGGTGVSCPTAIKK
Experimental: FIG. 10 is a graph showing selenocystamine (SeCm) can enhance MsrA activity in cardiomyocytes. Cardiomyocytes were incubated with 400 μM sulindac and indicated concentration of selenocystamine. Briefly, primary neonatal rat cardiomyocytes (approximately 10^6 cells per treatment) were incubated with sulindac and two different concentrations of selenocystamine. Sulindac is a substrate for MsrA, and the amount of the reduced product, sulindac sulfide, indicates the amount of MsrA activity. The amount of product is 2.7, 3.7 and 5.6 picomoles for 0, 5 μM and 50 μM selenocystamine, respectively. This amounts to a 37% and 107% stimulation.

[8] = test system: Msr enzymes; test: Msr activity assay, statements on the Msr enzymes as a group; assay type: biochemical; details: no Trx system or T
Experimental: as §1

[9] = biological target: T8, eMsrB (Escherichia coli, UniProt P0A746); test: Colorimetric assay for Msr activity based on the reduction of DABS-met(o); assay type: biochemical, E. coli; remark: listed apart in the source
T8 construct: made in house; host or cells: E. coli
Experimental: as §1

[10] = test system: Zn-MT; details: appearance of free SH groups
Experimental: Briefly, purified Zn-MT was dialyzed against 10 mM HCl (pH 2.0) containing 150 mM NaCl for 12 hours at 4° C. The protein after dialysis is reduced, metal-free T and appears stable when left at pH 2.0. To study the activity of T in the Msr system, T was neutralized and added to the reaction mixtures immediately before the incubations were initiated. To oxidize T, 0.75 volumes of 50 mM Tris base were added to the T sample to bring the pH to 8.5. Under these conditions, approximately 50% of the sulfhydryls will become oxidized after 4 hours at room temperature or 2 hours at 37° C. With longer incubations, the T(o) started to precipitate.

[11] = Table 1, bMsrA 2 μg, DABS-met-S-(o), 15 mM DTT or Trx regenerating system, 60 minutes at 37° C.
[12] = Table 1, DABS-met-S-(o), 15 mM DTT or Trx regenerating system, 60 minutes at 37° C.
[13] = Table 1, eMsrB 2.7 μg, DABS-met-R-(o), 15 mM DTT or Trx regenerating system, 60 minutes at 37° C.
[14] = Table 1, DABS-met-R-(o), 15 mM DTT or Trx regenerating system, 60 minutes at 37° C.
[15] = Table 1, hMsrB3 2.3 μg, DABS-met-R-(o), 15 mM DTT or Trx regenerating system, 60 minutes at 37° C.
[16] = Table 2, 20 nmoles Zn-MT with 5 mM EDTA, or 15 mM DTT
[17] = mammalian Trx and mammalian Trx reductase

T4 sequence (P0A744 whole entry): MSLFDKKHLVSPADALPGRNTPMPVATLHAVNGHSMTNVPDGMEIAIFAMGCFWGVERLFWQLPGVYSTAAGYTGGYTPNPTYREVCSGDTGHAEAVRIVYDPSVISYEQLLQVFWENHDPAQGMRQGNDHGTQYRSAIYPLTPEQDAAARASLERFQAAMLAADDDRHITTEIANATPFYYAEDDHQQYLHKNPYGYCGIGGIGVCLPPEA
T6 sequence (Q9Y3D2 21-182): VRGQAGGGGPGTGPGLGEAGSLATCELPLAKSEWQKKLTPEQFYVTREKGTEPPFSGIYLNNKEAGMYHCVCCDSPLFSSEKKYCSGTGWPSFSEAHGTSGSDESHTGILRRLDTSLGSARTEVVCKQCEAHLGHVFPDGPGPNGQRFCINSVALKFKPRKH
T3 sequence (P68301 whole entry): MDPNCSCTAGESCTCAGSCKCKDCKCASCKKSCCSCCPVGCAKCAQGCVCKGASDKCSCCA

## O=C(O)c1ccccc1NN=C(N=Nc1cc(S(=O)(=O)O)ccc1O)c1ccccc1 [zincon]
[1]
  activity of chelating agent in place of EDTA with Zn-MT: inactive

## Trx: thioredoxin overexpressed and purified from E. coli; used as Trx regenerating system with Trx reductase and NADPH
[2]; Table 1, bMsrA
  Ratio Trx/DTT: 0.53
[2]; [11]
  nmoles DABS-met: 15.8 nmol
[3]
  oxidation of NADPH: dependent on Trx, Trx reductase and T(o)
[4]; Table 1, eMsrA
  Ratio Trx/DTT: 1.0
[4]; [12]
  nmoles DABS-met: 46.8 nmol
[5]; Table 1, eMsrB
  Ratio Trx/DTT: 5.4
[5]; [13]
  nmoles DABS-met: 60.3 nmol
[6]; Table 1, hMsrB2
  Ratio Trx/DTT: 0.03
[6]; [14]
  nmoles DABS-met: 0.8 nmol
[6]; hMsrB2
  activity with Trx relative to the activity seen with DTT: less than 10%
[1]; Table 1, hMsrB3
  Ratio Trx/DTT: 0.03
[1]; [15]
  nmoles DABS-met: 1.7 nmol
[1]; Table 3 line 2, hMsrB3 2.3 μg, no T(o), Trx + NADPH + Trx reductase
  nmoles DABS-met: 2.4 nmol
[1]; hMsrB3
  activity with Trx relative to the activity seen with DTT: less than 10%

## NCC[Se][Se]CCN [SeC, selenocystamine]
[2]; complete Trx system, bMsrA
  increase of activity in the presence of SeC: more than 3 fold
[7]; 5 μM selenocystamine versus 0
  stimulation of MsrA activity: 37%
[7]; 50 μM selenocystamine versus 0
  stimulation of MsrA activity: 107%
[7]; 5 μM selenocystamine
  amount of product (sulindac sulfide): 3.7 picomoles
[7]; 50 μM selenocystamine
  amount of product (sulindac sulfide): 5.6 picomoles
[8]
  activity of SeC by itself: no activity
[4]; E. coli enzymes
  stimulation by SeC above the Trx system alone: less than a twofold stimulation
[4]; complete Trx system, eMsrA
  stimulation by SeC: 10-20%
[9]; E. coli enzymes
  stimulation by SeC above the Trx system alone: less than a twofold stimulation
[9]; complete Trx system, eMsrB
  stimulation by SeC: 10-20%
[1]; FIG. 7, NADPH and Trx reductase or T as primary reducing agent
  final concentration of SeC at maximal stimulation: 50 µM

## O[C@@H](CS)[C@@H](O)CS [DTT, reference compound]
[2]; [11]
  nmoles DABS-met: 30.0 nmol
[2]; Table 2, bMsrA 2.0 μg, 20 nmoles Zn-MT with 5 mM EDTA, or 15 mM DTT
  nmoles DABS-met: 38.9 nmol
[4]; [12]
  nmoles DABS-met: 46.2 nmol
[4]; [16]
  nmoles DABS-met: 45.7 nmol
[9]; [13]
  nmoles DABS-met: 11.1 nmol
[9]; Table 2, eMsrB 5.4 μg, 20 nmoles Zn-MT with 5 mM EDTA, or 15 mM DTT
  nmoles DABS-met: 27.8 nmol
[6]; [14]
  nmoles DABS-met: 31.3 nmol
[6]; [16]
  nmoles DABS-met: 27.1 nmol
[1]; [15]
  nmoles DABS-met: 53.8 nmol
[1]; Table 2, hMsrB3 2.3 μg, 20 nmoles Zn-MT with 5 mM EDTA, or 15 mM DTT
  nmoles DABS-met: 53.7 nmol
[1]; experiment of Table 3, hMsrB3 2.3 μg, 15 mM DTT
  nmoles DABS-met formed: 52.7 nmol

## CC(=O)N(O)CCCCCNC(=O)CCC(=O)N(O)CCCCCNC(=O)CCC(=O)N(O)CCCCCN [deferoxamine]
[1]
  activity of chelating agent in place of EDTA with Zn-MT: inactive

## O=C(O)CN(CCN(CC(=O)O)CC(=O)O)CC(=O)O [EDTA, ethylenediaminetetraacetic acid]
[1]; EDTA alone
  effect of EDTA by itself on hMsrB3 activity: no significant effect
[1]; heated liver S-100 as reducing source
  levels of EDTA giving optimal activity: above 2.5 mM
[10]
  time for removal of zinc from Zn-MT: less than 10 minutes
  zinc removed from Zn-MT: > 90%

## O=C(O)CN(CCOCCOCCN(CC(=O)O)CC(=O)O)CC(=O)O [EGTA]
[1]
  activity of chelating agent in place of EDTA with Zn-MT: inactive

## c1cnc2c(c1)ccc1cccnc12 [1,10-phenanthroline]
[1]; 5 mM
  activity relative to EDTA, chelating agent in place of EDTA with Zn-MT: about 40%

B1: mammalian Trx: reduced mammalian Trx with mammalian Trx reductase; human Trx from Sigma, rat Trx reductase (TR3) (protein, UniProt P10599 2-105, looked up)
Thioredoxin: VKQIESKTAFQEALDAAGDKLVVVDFSATWCGPCKMIKPFFHSLSEKYSNVIFLEVDVDDCQDVASECEVKCMPTFQFFKKGQKVGEFSGANKEKLEATINELV
modifications: with rat Trx reductase
[4]; [17]
  use of Trx from either source: efficiently used
[5]; [17]
  use of Trx from either source: efficiently used
[1]; [17]
  activity with reduced mammalian Trx: very poor activity
